Results reported in patent US20050090398A1, “Novel tetrazole derivative useful as herbicides” (priority 2002, published 2005).

Columns and labels:
[1] = system: Echinochloa crusgalli; experiment: Test of post-emergence foliage treatment against field weeds; assay type: in vivo; details: post-emergence foliage treatment at 2-leaf stage, 2.0 kg/ha effective component, examined 3 weeks after treatment
Procedure: (§1) Preparation of formulation of the active compound • Carrier: Acetone 5 parts by weight • Emulsifier: Benzyloxy polyglycol ether 1 part by weight
(§2) A formulation of an active substance is obtained as an emulsifiable concentrate by mixing 1 part by weight of the active compound with the above-mentioned amount of the carrier and emulsifier. A prescribed amount of the formulation is diluted with water.
(§3) In a green house, seeds of Echinochloa crusgalli, Setaria viridis, Amaranthus retro-flexus and Polygonum were sown in a 120 cm^2 pot filled with field soil and covered with soil. 10 days after the sowing and soil covering (weeds were 2-leaf stage in average) a diluted solution of the prescribed chemical amount prepared in the same manner as in the above-mentioned Test Example 1 was spread uniformly on the foliage of the test plants in each test pot. The herbicidal effect was examined 3 weeks after the treatment.

[2] = system: Amaranthus retroflexus; experiment: as above; assay type: in vivo; details: post-emergence foliage treatment at 2-leaf stage, 2.0 kg/ha effective component, examined 3 weeks after treatment
Procedure: as §1, §2, §3

[3] = system: Polygonum; experiment: as above; assay type: in vivo; details: post-emergence foliage treatment at 2-leaf stage, 2.0 kg/ha effective component, examined 3 weeks after treatment
Procedure: as §1, §2, §3

[4] = system: Setaria viridis; experiment: as above; assay type: in vivo; details: post-emergence foliage treatment at 2-leaf stage, 2.0 kg/ha effective component, examined 3 weeks after treatment
Procedure: as §1, §2, §3

[5] = system: paddy field weeds; experiment: Test for herbicidal effect against paddy field weeds; assay type: in vivo; details: 0.25 kg/ha active component, applied to water surface 5 days after rice transplantation, examined after 3 weeks
Procedure: as §1, §2
(§4) In a green house 3 seedlings of paddy rice (variety: Nihonbare) of 2.5 leaf stage (15 cm tall) were transplanted in a 500 cm^2 pot filled with paddy field soil. Then seeds or tubers of Echinochloa crusgalli, Cyperus difformis L., Scirpus juncoides Roxburgh, Monochoria vaginalis Presl, broad-leaved weeds (Lindernia Procumbens Philcox, Rotala indica Koehne, Elatine triandra Schk, Ammannia multiflora Roxb., Dopatrium junceum Hammilt etc.), Cyperus serotinus Rottboel and Sagittaria pygmaea Miq were inoculated and water was poured to a depth of about 2-3 cm. 5 days after the rice transplantation a prescribed, diluted solution of each formulation of active compound prepared according to the aforementioned preparation method was applied to the surface of water. After the treatment the water depth of 3 cm was maintained and the herbicidal effect was examined after 3 weeks from the treatment. The herbicidal effect was rated 100% in the case of complete death and as 0% in the case of no herbicidal effect.

[6] = system: transplanted paddy rice; experiment: Paddy field test: safety to transplanted paddy rice; assay type: in vivo, paddy rice (variety: Nihonbare); details: 0.25 kg/ha active component, applied to water surface 5 days after rice transplantation, examined after 3 weeks
Procedure: as §1, §2, §4

Compound | melting point [°C] | herbicidal activity against Echinochloa crusgalli [1] [%] | herbicidal activity against Amaranthus retroflexus [2] [%] | herbicidal activity against Polygonum [3] [%] | herbicidal activity against Setaria viridis [4] [%] | herbicidal effect against paddy field weeds [5] | safety to the transplanted paddy rice [6]
O=C1CCCC(Cl)=C1C(=O)c1ccc(Cl)c(OCCn2cnnn2)c1Cl | 122 to 124 | – | – | – | – | – | –
O=C1CCCC(Sc2ccccc2)=C1C(=O)c1ccc(Cl)c(OCCn2cnnn2)c1Cl | 64 to 70 | – | – | – | – | – | –
O=C1CCCC(=O)C1C(=O)c1ccc(Cl)c(OCCn2cnnn2)c1Cl [compound 212] | – | 90 | 90 | 90 | 90 | – | –
CC1(C)CC(=O)C(C(=O)c2ccc(Cl)c(OCCn3cnnn3)c2Cl)C(=O)C1 [compound 213] | – | 90 | 90 | 90 | 90 | – | –
CC1CC(=O)C(C(=O)c2ccc(Cl)c(OCCn3cnnn3)c2Cl)C(=O)C1 (centres unmarked) [compound 215] | – | 90 | 90 | 90 | 90 | – | –
O=C(c1ccc(Cl)c(OCCn2cnnn2)c1Cl)C1C(=O)C2CCC(C2)C1=O (centres unmarked) [compound 217] | – | – | – | – | – | sufficient herbicidal effect | safety to the transplanted paddy rice
O=C1CCCC(Sc2ccccc2)=C1C(=O)c1ccc(Cl)c(OCCn2cnnn2)c1Cl [compound 219] | – | – | – | – | – | sufficient herbicidal effect | safety to the transplanted paddy rice
O=C1CCCC(Cl)=C1C(=O)c1ccc(Cl)c(OCCn2cnnn2)c1Cl [compound 258] | – | 90 | 90 | 90 | 90 | – | –
CCn1ncc(C(=O)c2ccc(Cl)c(OCCn3cnnn3)c2Cl)c1O [compound 272] | – | 90 | 90 | 90 | 90 | – | –
Cc1nnnn1CCOc1c(Cl)ccc(C(=O)C2C(=O)CCCC2=O)c1Cl [compound 275] | – | 90 | 90 | 90 | 90 | – | –
CS(=O)(=O)c1ccc(C(=O)C2C(=O)CCCC2=O)c(Cl)c1Cn1cnnn1 [compound 495] | – | 90 | 90 | 90 | 90 | – | –
Cc1nnnn1Cc1c(S(C)(=O)=O)ccc(C(=O)C2C(=O)CCCC2=O)c1Cl [compound 558] | – | – | – | – | – | sufficient herbicidal effect | safety to the transplanted paddy rice
CSc1nnnn1Cc1c(S(C)(=O)=O)ccc(C(=O)C2C(=O)CCCC2=O)c1Cl [compound 650] | – | 90 | 90 | 90 | 90 | – | –
CS(=O)(=O)c1ccc(C(=O)C2C(=O)CCCC2=O)c(Cl)c1OCCn1cnnn1 [compound 715] | – | 90 | 90 | 90 | 90 | – | –
O=C1CCCC(=O)C1C(=O)c1ccc(Br)c(OCCn2cnnn2)c1Br [compound 1234] | – | 90 | 90 | 90 | 90 | – | –
O=C(c1ccc(Br)c(OCCn2cnnn2)c1Br)C1C(=O)C2CCC(C2)C1=O (centres unmarked) [compound 1239] | – | 90 | 90 | 90 | 90 | – | –
CCn1ncc(C(=O)c2ccc(Br)c(OCCn3cnnn3)c2C)c1O [compound 1593] | – | 90 | 90 | 90 | 90 | – | –

Compound | melting point [°C] | herbicidal activity against Echinochloa crusgalli [1] [%] | herbicidal activity against Amaranthus retroflexus [2] [%] | herbicidal activity against Polygonum [3] [%] | herbicidal activity against Setaria viridis [4] [%] | herbicidal effect against paddy field weeds [5] | safety to the transplanted paddy rice [6]
CCn1ncc(C(=O)c2ccc([N+](=O)[O-])c(OCCn3cnnn3)c2C)c1O [compound 1693] | – | 90 | 90 | 90 | 90 | – | –
O=C1CCCC(=O)C1C(=O)c1ccc(Cl)c(OCCn2ncnn2)c1Cl [compound 2017] | – | 90 | 90 | 90 | 90 | – | –
O=C(c1ccc(Cl)c(OCCn2ncnn2)c1Cl)C1C(=O)C2CCC(C2)C1=O (centres unmarked) [compound 2022] | – | 90 | 90 | 90 | 90 | – | –
O=C1CCCC(Sc2ccccc2)=C1C(=O)c1ccc(Cl)c(OCCn2ncnn2)c1Cl [compound 2024] | – | – | – | – | – | sufficient herbicidal effect | safety to the transplanted paddy rice
O=C1CCCC(Cl)=C1C(=O)c1ccc(Cl)c(OCCn2ncnn2)c1Cl [compound 2063] | – | 90 | 90 | 90 | 90 | – | –
CCn1ncc(C(=O)c2ccc(Cl)c(OCCn3ncnn3)c2Cl)c1O [compound 2077] | – | 90 | 90 | 90 | 90 | – | –
Cc1nnn(CCOc2c(Cl)ccc(C(=O)C3C(=O)CCCC3=O)c2Cl)n1 [compound 2080] | – | 90 | 90 | 90 | 90 | – | –
Cc1nnn(CCOc2c(Cl)ccc(C(=O)C3C(=O)CC(C)(C)CC3=O)c2Cl)n1 [compound 2081] | – | 90 | 90 | 90 | 90 | – | –
CS(=O)(=O)c1ccc(C(=O)C2C(=O)CCCC2=O)c(Cl)c1Cn1ncnn1 [compound 2301] | – | 90 | 90 | 90 | 90 | – | –
Cc1ccc(SC2=C(C(=O)c3ccc(S(C)(=O)=O)c(Cn4ncnn4)c3Cl)C(=O)CCC2)cc1 [compound 2329] | – | – | – | – | – | sufficient herbicidal effect | safety to the transplanted paddy rice
Cc1cccc(C)c1SC1=C(C(=O)c2ccc(S(C)(=O)=O)c(Cn3ncnn3)c2Cl)C(=O)CCC1 [compound 2335] | – | – | – | – | – | sufficient herbicidal effect | safety to the transplanted paddy rice
CS(=O)(=O)c1ccc(C(=O)C2=C(Cl)CCCC2=O)c(Cl)c1Cn1ncnn1 [compound 2347] | – | 90 | 90 | 90 | 90 | – | –
Cc1nnn(Cc2c(S(C)(=O)=O)ccc(C(=O)C3C(=O)CCCC3=O)c2Cl)n1 [compound 2364] | – | 90 | 90 | 90 | 90 | sufficient herbicidal effect | safety to the transplanted paddy rice
CS(=O)(=O)c1ccc(C(=O)C2C(=O)CCCC2=O)c(Cl)c1OCCn1ncnn1 [compound 2521] | – | 90 | 90 | 90 | 90 | – | –
O=C1CCCC(=O)C1C(=O)c1ccc(Br)c(OCCn2ncnn2)c1Br [compound 3038] | – | 90 | 90 | 90 | 90 | – | –
O=C(c1ccc(Br)c(OCCn2ncnn2)c1Br)C1C(=O)C2CCC(C2)C1=O (centres unmarked) [compound 3043] | – | 90 | 90 | 90 | 90 | – | –
